Measurements taken from ChEMBL document CHEMBL1154088, “Synthesis, biological evaluation and docking studies of novel benzopyranone congeners for their expected activity as anti-inflammatory, analgesic and antipyretic agents” (Bioorg Med Chem, 2009).

System: Mus musculus
Assay: Analgesic activity in mouse assessed as protection against acetic acid-induced writhing at one-tenth of LD50 administered subcutaneously 30 mins before acetic acid challenge measured after 4 hrs relative to control
Type: functional
Settings: not given

Going from C/C(=N\Nc1ccccc1)c1c(O)ccc2c(-c3ccccc3)cc(=O)oc12 to C/C(=N\c1ccccc1N)c1c(O)ccc2c(-c3ccccc3)cc(=O)oc12, the Activity rises from 1.17% to 1.64%.

First: O=C(/C=C/c1ccc(Cl)cc1)c1c(O)ccc2c(-c3ccccc3)cc(=O)oc12
Second: N#Cc1c(-c2cccnc2)cc(-c2c(O)ccc3c(-c4ccccc4)cc(=O)oc23)[nH]c1=O
The Activity of the first is lower: 0.94% for the first, 0.95% for the second.

Going from CN(C)c1ccc(C2CC(c3c(O)ccc4c(-c5ccccc5)cc(=O)oc34)=NN2c2ccccc2)cc1 (stereo not given) to CN(C)c1ccc(C2CC(c3c(O)ccc4c(-c5ccccc5)cc(=O)oc34)=NN2c2ccc([N+](=O)[O-])cc2[N+](=O)[O-])cc1 (stereo not given), the Activity rises from 6.82% to 7.29%.

System: Rattus norvegicus
Assay: Antipyretic activity against yeast-induced hyperpyrexia in hyperthermic rat assessed as rectal temperature at one-tenth of LD50 administered subcutaneously 18 hrs after yeast challenge measured after 1 hr (Rvb=39.24 +/- 0.22 degC)
Type: functional
Settings: not given

Compared with C/C(=N\Nc1ccccc1)c1c(O)ccc2c(-c3ccccc3)cc(=O)oc12, C/C(=N\c1ccccc1N)c1c(O)ccc2c(-c3ccccc3)cc(=O)oc12 is lower in Activity: 39.11 °C for the first, 38.61 °C for the second.

Compared with O=C(/C=C/c1ccc(Cl)cc1)c1c(O)ccc2c(-c3ccccc3)cc(=O)oc12, N#Cc1c(-c2cccnc2)cc(-c2c(O)ccc3c(-c4ccccc4)cc(=O)oc23)[nH]c1=O is lower in Activity: 39.05 °C for the first, 38.71 °C for the second.

Compared with CN(C)c1ccc(C2CC(c3c(O)ccc4c(-c5ccccc5)cc(=O)oc34)=NN2c2ccccc2)cc1 (stereo not given), CN(C)c1ccc(C2CC(c3c(O)ccc4c(-c5ccccc5)cc(=O)oc34)=NN2c2ccc([N+](=O)[O-])cc2[N+](=O)[O-])cc1 (stereo not given) is higher in Activity: 38.4 °C for the first, 38.54 °C for the second.

System: Rattus norvegicus
Assay: Antipyretic activity against yeast-induced hyperpyrexia in hyperthermic rat assessed as rectal temperature at one-tenth of LD50 administered subcutaneously 18 hrs after yeast challenge measured after 2 hrs (Rvb=39.11 +/- 0.26 degC)
Type: functional
Settings: not given

Going from C/C(=N\Nc1ccccc1)c1c(O)ccc2c(-c3ccccc3)cc(=O)oc12 to C/C(=N\c1ccccc1N)c1c(O)ccc2c(-c3ccccc3)cc(=O)oc12, the Activity falls from 38.81 °C to 38.41 °C.

Going from O=C(/C=C/c1ccc(Cl)cc1)c1c(O)ccc2c(-c3ccccc3)cc(=O)oc12 to N#Cc1c(-c2cccnc2)cc(-c2c(O)ccc3c(-c4ccccc4)cc(=O)oc23)[nH]c1=O, the Activity falls from 38.91 °C to 38.81 °C.

First: CN(C)c1ccc(C2CC(c3c(O)ccc4c(-c5ccccc5)cc(=O)oc34)=NN2c2ccccc2)cc1 (stereo not given)
Second: CN(C)c1ccc(C2CC(c3c(O)ccc4c(-c5ccccc5)cc(=O)oc34)=NN2c2ccc([N+](=O)[O-])cc2[N+](=O)[O-])cc1 (stereo not given)
The Activity of the first is lower: 38.01 °C for the first, 38.1 °C for the second.

System: Rattus norvegicus
Assay: Antipyretic activity against yeast-induced hyperpyrexia in hyperthermic rat assessed as rectal temperature at one-tenth of LD50 administered subcutaneously 18 hrs after yeast challenge measured after 3 hrs (Rvb=39.20 +/- 0.24 degC)
Type: functional
Settings: not given

Going from C/C(=N\Nc1ccccc1)c1c(O)ccc2c(-c3ccccc3)cc(=O)oc12 to C/C(=N\c1ccccc1N)c1c(O)ccc2c(-c3ccccc3)cc(=O)oc12, the Activity falls from 38.91 °C to 38.81 °C.

First: O=C(/C=C/c1ccc(Cl)cc1)c1c(O)ccc2c(-c3ccccc3)cc(=O)oc12
Second: N#Cc1c(-c2cccnc2)cc(-c2c(O)ccc3c(-c4ccccc4)cc(=O)oc23)[nH]c1=O
The Activity of the first is higher: 38.84 °C for the first, 38.81 °C for the second.

Going from CN(C)c1ccc(C2CC(c3c(O)ccc4c(-c5ccccc5)cc(=O)oc34)=NN2c2ccccc2)cc1 (stereo not given) to CN(C)c1ccc(C2CC(c3c(O)ccc4c(-c5ccccc5)cc(=O)oc34)=NN2c2ccc([N+](=O)[O-])cc2[N+](=O)[O-])cc1 (stereo not given), the Activity falls from 38.43 °C to 38.42 °C.

System: Rattus norvegicus
Assay: Antipyretic activity against yeast-induced hyperpyrexia in hyperthermic rat assessed as rectal temperature at one-tenth of LD50 administered subcutaneously 18 hrs after yeast challenge measured after 4 hrs (Rvb=39.17 +/- 0.20 degC)
Type: functional
Settings: not given

Going from C/C(=N\Nc1ccccc1)c1c(O)ccc2c(-c3ccccc3)cc(=O)oc12 to C/C(=N\c1ccccc1N)c1c(O)ccc2c(-c3ccccc3)cc(=O)oc12, the Activity falls from 38.91 °C to 38.9 °C.

O=C(/C=C/c1ccc(Cl)cc1)c1c(O)ccc2c(-c3ccccc3)cc(=O)oc12 and N#Cc1c(-c2cccnc2)cc(-c2c(O)ccc3c(-c4ccccc4)cc(=O)oc23)[nH]c1=O are the same in Activity: 38.91 °C for the first, 38.91 °C for the second.

Compared with CN(C)c1ccc(C2CC(c3c(O)ccc4c(-c5ccccc5)cc(=O)oc34)=NN2c2ccccc2)cc1 (stereo not given), CN(C)c1ccc(C2CC(c3c(O)ccc4c(-c5ccccc5)cc(=O)oc34)=NN2c2ccc([N+](=O)[O-])cc2[N+](=O)[O-])cc1 (stereo not given) is higher in Activity: 38.88 °C for the first, 38.91 °C for the second.

System: not listed separately
Assay: Toxicity in sc dosed albino mouse up to 24 hrs
Type: organism-based
Settings: in vivo

C/C(=N\Nc1ccccc1)c1c(O)ccc2c(-c3ccccc3)cc(=O)oc12 and C/C(=N\c1ccccc1N)c1c(O)ccc2c(-c3ccccc3)cc(=O)oc12 are within 1.5-fold of each other in LD50 at 24 h: 290 mg/kg for the first, 370 mg/kg for the second.

O=C(/C=C/c1ccc(Cl)cc1)c1c(O)ccc2c(-c3ccccc3)cc(=O)oc12 and N#Cc1c(-c2cccnc2)cc(-c2c(O)ccc3c(-c4ccccc4)cc(=O)oc23)[nH]c1=O are within 1.5-fold of each other in LD50 at 24 h: 330 mg/kg for the first, 370 mg/kg for the second.

CN(C)c1ccc(C2CC(c3c(O)ccc4c(-c5ccccc5)cc(=O)oc34)=NN2c2ccccc2)cc1 (stereo not given) and CN(C)c1ccc(C2CC(c3c(O)ccc4c(-c5ccccc5)cc(=O)oc34)=NN2c2ccc([N+](=O)[O-])cc2[N+](=O)[O-])cc1 (stereo not given) are the same in LD50 at 24 h: 330 mg/kg for the first, 330 mg/kg for the second.

System: Rattus norvegicus
Assay: Antiinflammatory activity against carrageenan-induced foot paw edema in rat assessed as reduction in paw size at one-tenth of LD50 administered subcutaneously 30 mins before carrageenan challenge measured after 3 hrs relative to control
Type: functional
Design: scale not given: the % may be the effect or the level left
Settings: not given

Compared with C/C(=N\Nc1ccccc1)c1c(O)ccc2c(-c3ccccc3)cc(=O)oc12, C/C(=N\c1ccccc1N)c1c(O)ccc2c(-c3ccccc3)cc(=O)oc12 is lower in Activity: 12.35% for the first, 8.7% for the second.

Compared with O=C(/C=C/c1ccc(Cl)cc1)c1c(O)ccc2c(-c3ccccc3)cc(=O)oc12, N#Cc1c(-c2cccnc2)cc(-c2c(O)ccc3c(-c4ccccc4)cc(=O)oc23)[nH]c1=O is lower in Activity: 20.27% for the first, 7.17% for the second.

Going from CN(C)c1ccc(C2CC(c3c(O)ccc4c(-c5ccccc5)cc(=O)oc34)=NN2c2ccccc2)cc1 (stereo not given) to CN(C)c1ccc(C2CC(c3c(O)ccc4c(-c5ccccc5)cc(=O)oc34)=NN2c2ccc([N+](=O)[O-])cc2[N+](=O)[O-])cc1 (stereo not given), the Activity rises from 5.78% to 17.06%.

System: Mus musculus
Assay: Analgesic activity in mouse assessed as protection against acetic acid-induced writhing at one-tenth of LD50 administered subcutaneously 30 mins before acetic acid challenge measured after 1 hr relative to control
Type: functional
Settings: not given

Going from C/C(=N\Nc1ccccc1)c1c(O)ccc2c(-c3ccccc3)cc(=O)oc12 to C/C(=N\c1ccccc1N)c1c(O)ccc2c(-c3ccccc3)cc(=O)oc12, the Activity rises from 3.75% to 9.85%.

First: O=C(/C=C/c1ccc(Cl)cc1)c1c(O)ccc2c(-c3ccccc3)cc(=O)oc12
Second: N#Cc1c(-c2cccnc2)cc(-c2c(O)ccc3c(-c4ccccc4)cc(=O)oc23)[nH]c1=O
The Activity of the first is lower: 0% for the first, 8.8% for the second.

Going from CN(C)c1ccc(C2CC(c3c(O)ccc4c(-c5ccccc5)cc(=O)oc34)=NN2c2ccccc2)cc1 (stereo not given) to CN(C)c1ccc(C2CC(c3c(O)ccc4c(-c5ccccc5)cc(=O)oc34)=NN2c2ccc([N+](=O)[O-])cc2[N+](=O)[O-])cc1 (stereo not given), the Activity falls from 39.76% to 36.94%.

System: Mus musculus
Assay: Analgesic activity in mouse assessed as protection against acetic acid-induced writhing at one-tenth of LD50 administered subcutaneously 30 mins before acetic acid challenge measured after 2 hrs relative to control
Type: functional
Settings: not given

Compared with C/C(=N\Nc1ccccc1)c1c(O)ccc2c(-c3ccccc3)cc(=O)oc12, C/C(=N\c1ccccc1N)c1c(O)ccc2c(-c3ccccc3)cc(=O)oc12 is higher in Activity: 2.58% for the first, 12.44% for the second.

Compared with O=C(/C=C/c1ccc(Cl)cc1)c1c(O)ccc2c(-c3ccccc3)cc(=O)oc12, N#Cc1c(-c2cccnc2)cc(-c2c(O)ccc3c(-c4ccccc4)cc(=O)oc23)[nH]c1=O is higher in Activity: 0.94% for the first, 8.8% for the second.

Going from CN(C)c1ccc(C2CC(c3c(O)ccc4c(-c5ccccc5)cc(=O)oc34)=NN2c2ccccc2)cc1 (stereo not given) to CN(C)c1ccc(C2CC(c3c(O)ccc4c(-c5ccccc5)cc(=O)oc34)=NN2c2ccc([N+](=O)[O-])cc2[N+](=O)[O-])cc1 (stereo not given), the Activity falls from 40.23% to 35.29%.

System: Mus musculus
Assay: Analgesic activity in mouse assessed as protection against acetic acid-induced writhing at one-tenth of LD50 administered subcutaneously 30 mins before acetic acid challenge measured after 3 hrs relative to control
Type: functional
Settings: not given

Compared with C/C(=N\Nc1ccccc1)c1c(O)ccc2c(-c3ccccc3)cc(=O)oc12, C/C(=N\c1ccccc1N)c1c(O)ccc2c(-c3ccccc3)cc(=O)oc12 is higher in Activity: 2.81% for the first, 9.62% for the second.

First: O=C(/C=C/c1ccc(Cl)cc1)c1c(O)ccc2c(-c3ccccc3)cc(=O)oc12
Second: N#Cc1c(-c2cccnc2)cc(-c2c(O)ccc3c(-c4ccccc4)cc(=O)oc23)[nH]c1=O
The Activity of the first is lower: 1.65% for the first, 3.57% for the second.

First: CN(C)c1ccc(C2CC(c3c(O)ccc4c(-c5ccccc5)cc(=O)oc34)=NN2c2ccccc2)cc1 (stereo not given)
Second: CN(C)c1ccc(C2CC(c3c(O)ccc4c(-c5ccccc5)cc(=O)oc34)=NN2c2ccc([N+](=O)[O-])cc2[N+](=O)[O-])cc1 (stereo not given)
The Activity of the first is higher: 20.47% for the first, 19.05% for the second.
